The text below walks through data of patent publication US20080132536A1, “PYRAZOLO [3,4-B] PYRIDINE COMPOUNDS, AND THEIR USE AS PDE4 INHIBITORS” (Glaxo Group Limited, priority 2003, published 2008).

Molecules are shown by their SMILES.

The target of data set [1] is T1, PDE4B (human recombinant) (Homo sapiens, UniProt Q07343).
T1 construct: made in house
The data set can be described thus: PDE4B inhibition, radioactive SPA and/or IMAP fluorescence polarisation (FP) assay. The data set is classed as biochemical. The conditions noted are these: for PDE4B inhibitory activity compared with the comparable Example of opposite stereochemistry at the CR4R5 (benzylic) carbon atom: comparators: Examples 6, 7, 29, 26, 64, 126, 124, 170, 177; for IC50: one reading or average of several (ca. 2-6) readings, SPA and/or FP assay, range given for a group of Examples, read-out: PDE4B pIC50 (±about 0.5) (converted). The source says:
Human recombinant PDE4B, in particular the 2B splice variant thereof (HSPDE4B2B), is disclosed in WO 94/20079 and also M. M. McLaughlin et al., “A low Km, rolipram-sensitive, cAMP-specific phosphodiesterase from human brain: cloning and expression of cDNA, biochemical characterisation of recombinant protein, and tissue distribution of mRNA”, J. Biol. Chem., 1993, 268, 6470-6476. For example, in Example 1 of WO 94/20079, human recombinant PDE4B is described as being expressed in the PDE-deficient yeast Saccharomyces cerevisiae strain GL62, e.g. after induction by addition of 150 uM CuSO4, and 100,000×g supernatant fractions of yeast cell lysates are described for use in the harvesting of PDE4B enzyme.
The ability of compounds to inhibit catalytic activity at PDE4B or 4D (human recombinant), PDE3 (from bovine aorta), PDE5 (human recombinant) or PDE6 (from bovine retina) can optionally be determined by Scintillation Proximity Assay (SPA) in 96-well format.
Test compounds (as a solution in DMSO, preferably about 2 microlitre (ul) volume of DMSO solution) are preincubated at ambient temperature (room temperature, e.g. 19-23° C.) in Wallac Isoplates (code 1450-514) with PDE enzyme in 50 mM Tris-HCl buffer pH 7.5, 8.3 mM MgCl2, 1.7 mM EGTA, 0.05% (w/v) bovine serum albumin for 10-30 minutes (usually 30 minutes). The enzyme concentration is adjusted so that no more than 20% hydrolysis of the substrate defined below occurs in control wells without compound, during the incubation. For the PDE3, PDE4B and PDE4D assays, [5′,8-3H]Adenosine 3′,5′-cyclic phosphate (Amersham Pharmacia Biotech, code TRK.559; or Amersham Biosciences UK Ltd, Pollards Wood, Chalfont St Giles, Buckinghamshire HP8 4SP, UK) is added to give 0.05 uCi per well and about 10 nM final concentration. For the PDE5 and PDE6 assays, [8-^3H]Guanosine 3′,5′-cyclic phosphate (Amersham Pharmacia Biotech, code TRK.392) is added to give 0.05 uCi per well and about 36 nM final concentration. Plates containing assay mixture, preferably approx. 100 ul volume of assay mixture, are mixed on an orbital shaker for 5 minutes and incubated at ambient temperature for 1 hour. Phosphodiesterase SPA beads (Amersham Pharmacia Biotech, code RPNQ 0150) are added (about 1 mg per well) to terminate the assay. Plates are sealed and shaken and allowed to stand at ambient temperature for 35 minutes to 1 hour (preferably 35 minutes) to allow the beads to settle. Bound radioactive product is measured using a WALLAC TRILUX 1450 Microbeta scintillation counter. For inhibition curves, 10 concentrations (1.5 nM-30 uM) of each compound are assayed. Curves are analysed using ActivityBase and XLfit (ID Business Solutions Limited, 2 Ocean Court, Surrey Research Park, Guildford, Surrey GU2 7QB, United Kingdom) Results are expressed as pIC50 values.
The ability of compounds to inhibit catalytic activity at PDE4B (human recombinant) or PDE4D (human recombinant) can optionally be determined by IMAP Fluorescence Polarisation (FP) assay (IMAP Explorer kit, available from Molecular Devices Corporation, Sunnydale, Calif., USA; Molecular Devices code: R8062) in 384-well format.
The IMAP FP assay is able to measure PDE activity in an homogenous, non-radioactive assay format. The FP assay uses the ability of immobilised trivalent metal cations, coated onto nanoparticles (tiny beads), to bind the phosphate group of Fl-AMP that is produced on the hydrolysis of fluorescein-labelled (Fl) cyclic adenosine mono-phosphate (Fl-cAMP) to the non-cyclic Fl-AMP form. […] Binding of Fl-AMP product to the beads (coated with the immobilised trivalent cations) slows the rotation of the bound Fl-AMP and leads to an increase in the fluorescence polarisation ratio of parallel to perpendicular light. Inhibition of the PDE reduces/inhibits this signal increase. […]
For orientation: In fluorescence polarisation assays a small probe gives low polarisation when free and higher when bound to something large.

The text on data set [2]: Micronisation usually involves subjecting the compound/salt to collisional and/or abrasional forces in a fast-flowing circular or spiral/vortex-shaped airstream often including a cyclone component.
In particle size measurements, D90, D50 and D10 respectively mean that 90%, 50% and 10% of the material is less than the micron size specified. D50 is the median particle size. DV90, DV50 and […] respectively mean that 90%, 50% and 10% by volume of the material is less than the micron size specified. DM90, DM50 and DM10 respectively mean that 90%, 50% and 10% by weight of the material is less than the micron size specified.
Laser diffraction measurement of particle size can use a dry method (wherein a suspension of the compound/salt in an airflow crosses the laser beam) or a wet method [wherein a suspension of the compound/salt in a liquid dispersing medium, such as isooctane or (e.g. if compound is soluble in isooctane) 0.1% Tween 80 in water, crosses the laser beam]. With laser diffraction, particle size is preferably calculated using the Fraunhofer calculation; and/or preferably a Malvern Mastersizer or Sympatec apparatus is used for measurement.
• Purpose: To micronise Example 73, 75, 98, 283, 304, 306, 307, 308, 309, 310, 311, 312, 313, 314 or 314A or 333 (described hereinafter), usually in an amount of approximately 600-1000 mg thereof, using a Jetpharma MC 1 micronizer. • The parent (unmicronised) and micronised materials are analyzed for particle size by laser diffraction and crystallinity by PXRD.
The micronizer is assembled. The narrow head of the venturi inlet is positioned below and slightly forward of the material inlet port and is measured with a micro-caliper to make sure that it is inserted correctly. The ring (R) and venturi (V) pressures are adjusted according to the values specified in the experimental design (refer to experimental section below) by adjusting the valves on the pressure gauges on the micronizer. The setup is checked for leakage by observing if there is any fluctuation in the reading of the pressure gauges.
Balance performance is checked with calibration weights. Specified amount of the parent material (see e.g. section on experimental run Procedure 1 for Example 307) is fed into the input container of the micronizer using a spatula. The input container plus material is weighed. The equipment pressure is monitored during the micronization process.
Upon completion of the micronising run, the nitrogen supply is shut off and the micronised material is allowed to settle into the micronizer container. The micronised powder in the micronizer container (collection vessel) and the cyclone (above the recovery vessel) are collected together into a pre-weighed and labelled collection vial. The weight of the micronised material is recorded. The input container is re-weighed in order to calculate the amount of input material by difference. The micronizer is disassembled and residual PDE4 compound on the micronizer inner surface is rinsed with 70/30 isopropyl alcohol/water and collected into a flask. The micronizer is then thoroughly cleaned in a Lancer washing machine and dried before subsequent runs are performed.

[3] abbreviates: micronised, V = 5 to 7 bar, R = 3 to 4 bar.

T1 sequence (Q07343 1-564 isoform Q07343-2): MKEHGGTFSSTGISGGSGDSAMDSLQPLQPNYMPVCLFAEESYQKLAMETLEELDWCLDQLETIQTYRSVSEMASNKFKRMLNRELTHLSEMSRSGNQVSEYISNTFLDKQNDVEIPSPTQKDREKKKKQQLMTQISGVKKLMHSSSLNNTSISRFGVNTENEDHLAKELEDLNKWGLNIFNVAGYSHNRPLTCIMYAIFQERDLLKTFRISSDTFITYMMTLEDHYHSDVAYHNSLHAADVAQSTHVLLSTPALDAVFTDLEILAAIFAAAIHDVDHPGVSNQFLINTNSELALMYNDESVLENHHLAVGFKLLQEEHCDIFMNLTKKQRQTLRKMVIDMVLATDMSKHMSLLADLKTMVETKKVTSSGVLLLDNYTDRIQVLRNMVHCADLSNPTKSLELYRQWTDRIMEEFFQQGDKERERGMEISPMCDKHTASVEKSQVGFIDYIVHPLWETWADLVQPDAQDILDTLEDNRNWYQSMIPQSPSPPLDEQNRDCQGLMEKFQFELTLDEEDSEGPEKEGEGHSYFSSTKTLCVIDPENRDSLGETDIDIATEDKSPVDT

On to `CCn1ncc2c(NC3CCCCC3)c(C(=O)N[C@H](COC)c3ccccc3)cnc21` [Example 129, 4-(cyclohexylamino)-1-ethyl-N-[(1S)-2-(methyloxy)-1-phenylethyl]-1H-pyrazolo[3,4-b]pyridine-5-carboxamide], for which the “PDE4B inhibitory activity compared with the comparable Example of opposite stereochemistry at the CR4R5 (benzylic) carbon atom” value in data set [1] is “greater PDE4B inhibitory activity”. Consider `CCn1ncc2c(NC3CCOCC3)c(C(=O)N[C@@H](COC)c3ccccc3)cnc21` [Example 29, 1-ethyl-N-[(1R)-2-(methyloxy)-1-phenylethyl]-4-(tetrahydro-2H-pyran-4-ylamino)-1H-pyrazolo[3,4-b]pyridine-5-carboxamide], for which the IC50 in data set [1] is 31.6 to 70.8 nM. Regarding `CCn1ncc2c(NC3CCOCC3)c(C(=O)N[C@H](C)c3ccc(OC)cc3)cnc21` [Example 63, 1-ethyl-N-{(1R)-1-[4-(methyloxy)phenyl]ethyl}-4-(tetrahydro-2H-pyran-4-ylamino)-1H-pyrazolo[3,4-b]pyridine-5-carboxamide], in data set [1], the “PDE4B inhibitory activity compared with the comparable Example of opposite stereochemistry at the CR4R5 (benzylic) carbon atom” value is recorded as “greater PDE4B inhibitory activity” and the IC50 was 0.794 to 5.01 nM.

Turning to `CCn1ncc2c(NC3CCOCC3)c(C(=O)N[C@@H](C)c3cccc4ccccc34)cnc21` [Example 38, 1-ethyl-N-[(1S)-1-(1-naphthalenyl)ethyl]-4-(tetrahydro-2H-pyran-4-ylamino)-1H-pyrazolo[3,4-b]pyridine-5-carboxamide], the IC50 in data set [1] was 12.6 to 25.1 nM.

For `CCn1ncc2c(NC3CCC(C(N)=O)CC3)c(C(=O)N[C@H](C)c3ccc(Br)cc3)cnc21` (mixture of isomers) [Example 351, 4-{[4-(aminocarbonyl)cyclohexyl]amino}-N-[(1R)-1-(4-bromophenyl)ethyl]-1-ethyl-1H-pyrazolo[3,4-b]pyridine-5-carboxamide], the IC50 in data set [1] was 0.501 to 3.16 nM. Turning to `CCC(NC(=O)c1cnc2c(cnn2CC)c1NC1CCOCC1)c1ccc(C)cc1C.Cl` (single isomer, unassigned; enantiomer 2) [Example 307, N-[1-(2,4-dimethylphenyl)propyl]-1-ethyl-4-(tetrahydro-2H-pyran-4-ylamino)-1H-pyrazolo[3,4-b]pyridine-5-carboxamide (Enantiomer 2) hydrochloride], in data set [2] (setting [3]), the “Particle Size Data D10 (micronised material)” value is recorded as “D10 = 0.84 microns”, the “Particle Size Data D50 (micronised material)” value is listed as “D50 = 1.56 microns” and the “Particle Size Data D90 (micronised material)” value is “D90 = 2.74 microns”. Further, in data set [2] (unmicronised), the “Particle Size Data D10 (unmicronised material)” value is “D10 = 2.48 microns”, the “Particle Size Data D50 (unmicronised material)” value is on record as “D50 = 8.98 microns” and the “Particle Size Data D90 (unmicronised material)” value is reported as “D90 = 24.14 microns”.

For `CCn1ncc2c(NC3CCOCC3)c(C(=O)N[C@H](C)c3ccc(Br)cc3)cnc21` [Example 75, N-[(1R)-1-(4-bromophenyl)ethyl]-1-ethyl-4-(tetrahydro-2H-pyran-4-ylamino)-1H-pyrazolo[3,4-b]pyridine-5-carboxamide], the IC50 in data set [1] was 0.794 to 5.01 nM. On to `CCn1ncc2c(NC3CCOCC3)c(C(=O)NC(C)c3ccc(Br)cc3)cnc21` (centres unmarked) [Example 50, N-[1-(4-bromophenyl)ethyl]-1-ethyl-4-(tetrahydro-2H-pyran-4-ylamino)-1H-pyrazolo[3,4-b]pyridine-5-carboxamide], for which, in data set [1], the IC50 was 0.794 to 5.01 nM.
